Test system: Rat hippocampal neurons
Test: Culture of hippocampal neurons on PLL-coated beads in media with mitotic inhibitor
Assay type: cell-based
Description: Borosilicate Glass Spheres (MO-SCI Specialty Products, Rolla, Mo.) were sterilized in an ethanol solution overnight, and dried under vacuum. Then the beads were incubated in a borate buffer solution for one hour, before being left in PLL solution overnight. Hippocampi were removed from embryonic day 18 (E18) rats and treated with trypsin for 20 min at 37° C., followed by washing and trituration. Dissociated cells were plated at 75,000 cells/cm^2 on poly-lysine-coated glass beads and cultured in neurobasal medium supplemented with 2 mM Glutamax, 2% FBS, and 2% B-27. Cells were transfected with Lipofectamine 2000 (Invitrogen) or they were infected with lenti virus after 5-15 days after dissociation and analyzed 2-14 days after infection.
Rat hippocampal neurons were selected as model mammalian brain neurons. Following dissection at a late embryonic stage (E18), or early postnatal stage (P4), the neurons were dissociated and cultured on beads coated with poly-L-lysine (PLL) to enhance cell adhesion and to support maturation.(13, 14) The neurons were grown on the beads using standard techniques developed for conventional 2D cultures (Pautot et al., 2008). […] However, a small number of supporting glial cells, which contribute to neuronal development by stimulating neuron growth and maturation, were also present. […]

## Nc1ccn([C@@H]2O[C@H](CO)[C@@H](O)[C@@H]2O)c(=O)n1 [araC]
araC added to the culture media, no conditioned media
  neuron outgrowth and branching: slowed
araC combined with conditioned media from glial feeder cell cultures, more than 3 weeks
  growth of neurons on the beads: robust growth
